In US11241441B2, “Formulations of lixivaptan for the treatment of polycystic disease” (PALLADIO BIOSCIENCES, INC., priority 2017, dated 2022):

What was measured:
Measured Log P = format: physicochemical
[1] = Shoaf, 2013; cited from earlier work
[2] = 90/30 mg split daily dosing; cited from earlier work

Cc1ccccc1C(=O)Nc1ccc(C(=O)N2CCCC(O)c3cc(Cl)ccc32)c(C)c1 (stereo not drawn) [tolvaptan]
logP (Measured Log P): > 3
exposure in subjects with impaired renal function compared to healthy individuals [1]: increased exposure
individuals with ALT elevations (reported by Woodhead) [2]: approximately 8%
